Measured values from US20110281951A1, “Compositions and methods for treating amyloidosis” (priority 1999, published 2011).

Target: T1, Aβ42 peptide (Homo sapiens, UniProt P05067)
T1 construct: Stock solution of Aβ42 or Aβ40 peptide at 5 mg/ml in distilled water, pH 7; made in house; host or cells: chemical synthesis (FMOC), HPLC purified
Assay: ELISA solubility assay (Aβ fibril formation)
Assay type: biochemical
Settings: 1:10 peptide:compound, overnight at room temperature, 10 mM phosphate buffer
Method: The assay was conducted as follows. Stock solution of Aβ42 peptide at 5 mg/ml in distilled water, pH 7, and stock solutions of each test compound at 1 mg/ml in distilled water, pH 7 were prepared. • 1. A 10 μg sample of peptide was mixed with compound at a molar ratio of 1:10 [ peptide:compound] in 500 μl of 10 mM phosphate buffer. Control samples contained peptide only. • 2. The mixture was incubated overnight at room temperature without agitation. • 3. The incubated mixture was centrifuged at 14,000 rpm (Eppendorf microfuge) for 5 minutes to separate the soluble peptide. • 4. 400 μl aliquots of supernatant were removed for ELISA assay.
ELISA • 1. 100 μl of prepared samples were coated in 96 wells NUNC microplates (each sample tested in triplicate) • 2. The plate was incubated at 37° C. for 3 hours, then at 4° C. overnight. • 3. The wells were washed twice with 0.05% Tween 20 in phosphate buffered saline. • 4. 250 μl of 3% skim milk powder in PBS was used to block non-specific binding to the wells (at 37° C. for 1.5 hours) • 5. The wells were washed with 0.05% Tween 20/PBS twice. • 6. A 100 μl aliquot of diluted (final dilution 1:100 in PBS) mouse monoclonal anti-Aβ antibody (purchased from DAKO recognizing the N-terminal residues 1-10) was added to each well. The antibody was then incubated at 37 C for 2 Hours. • 7. The wells were washed with 0.05% Tween 20/PBS six times (5 min/wash). • 8. Visualization was performed using 100 μl of diluted goat anti-mouse IgG (H^+ L) conjugated with alkaline phosphatase (purchased from BioRad) was added to each well. The plate was incubated at 37° C. for 1 hour. • 9. The wells were washed with 0.05% Tween 20/PBS six times (5 min/wash). • 10. The color reaction was developed using 100 μl of alkaline phosphatase substrate (purchased from BioRad) which was added to each well. • 11. The relative amounts of Aβ were obtained by measuring the OD of the sample at 405 nm using a standard ELISA plate reader.
Compounds were characterized as “active” if 40-50% of Aβ42 remained in the supernatant.

T1 sequence (P05067 672-713 limits assumed): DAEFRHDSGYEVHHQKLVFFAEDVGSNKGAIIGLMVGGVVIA

Row | Structure (SMILES) | Aβ42 remaining in the supernatant (activity class)
1 | C=CC(=O)NC(C)(C)CS(=O)(=O)O [XXI, 2-acrylamido-2-methyl-1-propanesulfonic acid] | Active
2 | CC12CC3CC(C)(C1)CC(NCCCS(=O)(=O)O)(C3)C2 [XXIV, 3-[(−3,5-dimethyl-1-adamantyl)-amino]-1-propanesulfonic acid] | Active
3 | Cc1ccc2nc(-c3ccc(N=NNc4ccc(-c5nc6ccc(C)c(S(=O)(=O)[O-])c6s5)cc4)cc3)sc2c1S(=O)(=O)[O-].[Na+].[Na+] [XXVIII, Thiazol Yellow G] | Active

Target: T2, IAPP (Homo sapiens, UniProt P10997)
T2 sequence (P10997 34-70 limits assumed): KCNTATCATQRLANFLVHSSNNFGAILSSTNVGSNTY
Assay: Thioflavine T spectroscopy, rate of amyloid fibril formation
Assay type: biochemical
Settings: ThT 62.5 μM; excitation 440 nm, emission 482 nm
Method: Detection of ThT fluorescence can be used as a sensitive assay for amyloid fibril formation under different conditions. This assay has been used in experiments to determine the effects of compounds of the invention on amyloid fibril formation.
Human IAPP was dissolved in 40% trifluoroethanol and freeze-dried into conveniently-sized aliquots. IAPP was prepared immediately before the measurements by dissolving in 40% 1,1,1,3,3,3-hexafluoro-2-propanol (HFIP) in water to maintain the peptide in alpha helical conformation and soluble. A stock solution of ThT (2.5 mM) was prepared, 7.9 mg in 10 mL Tris-HCl pH 7.0 and filtered (0.22 μm). Solutions were kept in the dark until use. Fluorescence was examined at 440 nm excitation (slit 5 nm), and emission at 482 nm (slit 10 nm) with stirring. […] of ThT stock (final concentration 62.5 μM) was added to peptide sample and made up to 1 mL in the cuvette. The sample was stirred for 5 min. before taking a reading. Measurements were made at an initial time point (5 min. from sample preparation), at intervals over the next 4-6 h and after overnight incubation at room temperature.

Row | Structure (SMILES) | IAPP-associated fibril assembly (ThT fluorescence)
4 | Cl.c1ccc2c(c1)CCNC2 [LVIX, 1,2,3,4-tetrahydroisoquinoline, hydrochloride] | inhibit or prevent IAPP-associated fibril assembly
5 | O=S(=O)(O)CCCNCCCO [LVX, 3-(3-hydroxy-1-propyl)amino-1-propanesulfonic acid] | inhibit or prevent IAPP-associated fibril assembly

Target: T2, IAPP
Assay: Circular dichroism analysis of IAPP-associated fibril formation (Example 7)
Assay type: biochemical
Parameters: add 10 μL of 10 mg/mL IAPP stock solution (final 100 ng peptide)
Settings: molar ratio 1:5 peptide:compound; 24 h
Method: Circular dichroism analysis was conducted to confirm the activity of certain therapeutic compounds in preventing or inhibiting IAPP-associated fibril formation in accordance with the present disclosure by determining the presence or absence of […] conformation.
Instrument: JASCO J-715 Spectropolarimeter
Cell cuvette: Hellma quartz (QS) with 1.0 mm pathlength
Wavelength interval: 250 nm-190 nm
Scanning speed: 20 nm/min
The assay, a co-incubation procedure, examines the ability of a compound or substance to inhibit the assembly of amyloid fibrils, e.g., to test for the presence of the amyloidotic β-sheet conformation in the presence of soluble IAPP. Samples are run in the presence and absence (i.e., water alone) of buffering agent, which is done to determine if competitive effects are seen with the ionic buffer (usually phosphate).
Add components used at a molar ratio of 1:10 [ peptide:compound]; add 10 μL of 10 mg/mL IAPP stock solution (final […] peptide) to the aqueous solution containing compound to a final volume of 400 μL. The pH of the final assay solution is measured to ensure there is no fluctuation and the spectrum is accumulated using the parameters as shown above.
Add desired amount of compound to achieve a 1:10 molar ratio in 10 mM phosphate buffer, pH 7. Add 10 μL of 10 mg/mL IAPP stock solution (final peptide 100 μg) to the phosphate buffered solution containing the compound and bring to a final volume of 400 μL. The pH of the final assay solution is measured to ensure there is no fluctuation and the spectrum is accumulated using the parameters as shown above.
In both assays, a control sample is run with each test group. This control contains peptide only in water or buffer at a similar final volume of 400 μl. Spectra for the control are collected initially (first run) and at the end of the test (final run) to ensure that the peptide has not undergone extensive aggregation during the course of the assay. Spectra for the controls are used to compare with the measurements obtained with the treated samples.
Make fresh 1 mg/mL stock solution of IAPP in 10 mM phosphate buffer, pH 7. Add desired amount of compound to achieve a 1:10 molar ratio in 10 mM phosphate buffer, pH 7. Incubate for 3 days at room temperature. Make up to final volume of 400 μL with 10 mM phosphate buffer, pH 7. The pH of the final assay solution is measured to ensure there is no fluctuation and the spectrum is accumulated using the parameters as shown above.
A similar control is run for comparative purposes.
Plots of the spectra (control and treated) are individually assembled and the changes in ellipticity at 218 nm are examined. This minimum is directly correlated with the amount of β-sheet present in the sample. Changes in either a positive or negative direction are noted and a relative value (“active” or “not active”) assigned to the compound as a measure of activity. In a subsequent experiment with the compounds at a molar ratio of 1:5 [ peptide:compound], the degree of randomness was noted, an indication of the ability of the compounds to prevent amyloid aggregation. A more positive number indicates less β-sheet formation. The ability of a compound to prevent β-sheet formation for at least 24 h is important, as the non-aggregated amyloid fibrils will be excreted in the soluble form. In the control noted below, the decrease in CD (mdegs) may indicate that some of the peptide is aggregating under these conditions.

Row | Structure (SMILES) | Conformation at 24 h
6 | Cl.c1ccc2c(c1)CCNC2 [LVIX, 1,2,3,4-tetrahydroisoquinoline, hydrochloride] | β
7 | O=S(=O)(O)CCCNCCCO [LVX, 3-(3-hydroxy-1-propyl)amino-1-propanesulfonic acid] | Random

Same assay, conditions: molar ratio 1:5 peptide:compound; 24 h; more positive = less β-sheet

Row | Structure (SMILES) | CD at 24 h
8 | Cl.c1ccc2c(c1)CCNC2 [LVIX, 1,2,3,4-tetrahydroisoquinoline, hydrochloride] | (−1.5) mdegs

Same assay, conditions: molar ratio 1:5 peptide:compound; 48 h

Row | Structure (SMILES) | Conformation at 48 h
9 | Cl.c1ccc2c(c1)CCNC2 [LVIX, 1,2,3,4-tetrahydroisoquinoline, hydrochloride] | β
10 | O=S(=O)(O)CCCNCCCO [LVX, 3-(3-hydroxy-1-propyl)amino-1-propanesulfonic acid] | β

Same assay, conditions: molar ratio 1:5 peptide:compound; 48 h; more positive = less β-sheet

Row | Structure (SMILES) | CD at 48 h [mdegs]
11 | Cl.c1ccc2c(c1)CCNC2 [LVIX, 1,2,3,4-tetrahydroisoquinoline, hydrochloride] | −1.3
12 | O=S(=O)(O)CCCNCCCO [LVX, 3-(3-hydroxy-1-propyl)amino-1-propanesulfonic acid] | −1.7

Same assay, conditions: molar ratio 1:5 peptide:compound; T0

Row | Structure (SMILES) | Conformation at T0
13 | Cl.c1ccc2c(c1)CCNC2 [LVIX, 1,2,3,4-tetrahydroisoquinoline, hydrochloride] | Random
14 | O=S(=O)(O)CCCNCCCO [LVX, 3-(3-hydroxy-1-propyl)amino-1-propanesulfonic acid] | Random

Same assay, conditions: molar ratio 1:10 peptide:compound

Row | Structure (SMILES) | Activity (change in ellipticity at 218 nm)
15 | Cl.c1ccc2c(c1)CCNC2 [LVIX, 1,2,3,4-tetrahydroisoquinoline, hydrochloride] | Active
